Where only a bound is given, the exact number is not on record here.

Sequence of recombinant human integrin αVβ6 (P06756 31-992): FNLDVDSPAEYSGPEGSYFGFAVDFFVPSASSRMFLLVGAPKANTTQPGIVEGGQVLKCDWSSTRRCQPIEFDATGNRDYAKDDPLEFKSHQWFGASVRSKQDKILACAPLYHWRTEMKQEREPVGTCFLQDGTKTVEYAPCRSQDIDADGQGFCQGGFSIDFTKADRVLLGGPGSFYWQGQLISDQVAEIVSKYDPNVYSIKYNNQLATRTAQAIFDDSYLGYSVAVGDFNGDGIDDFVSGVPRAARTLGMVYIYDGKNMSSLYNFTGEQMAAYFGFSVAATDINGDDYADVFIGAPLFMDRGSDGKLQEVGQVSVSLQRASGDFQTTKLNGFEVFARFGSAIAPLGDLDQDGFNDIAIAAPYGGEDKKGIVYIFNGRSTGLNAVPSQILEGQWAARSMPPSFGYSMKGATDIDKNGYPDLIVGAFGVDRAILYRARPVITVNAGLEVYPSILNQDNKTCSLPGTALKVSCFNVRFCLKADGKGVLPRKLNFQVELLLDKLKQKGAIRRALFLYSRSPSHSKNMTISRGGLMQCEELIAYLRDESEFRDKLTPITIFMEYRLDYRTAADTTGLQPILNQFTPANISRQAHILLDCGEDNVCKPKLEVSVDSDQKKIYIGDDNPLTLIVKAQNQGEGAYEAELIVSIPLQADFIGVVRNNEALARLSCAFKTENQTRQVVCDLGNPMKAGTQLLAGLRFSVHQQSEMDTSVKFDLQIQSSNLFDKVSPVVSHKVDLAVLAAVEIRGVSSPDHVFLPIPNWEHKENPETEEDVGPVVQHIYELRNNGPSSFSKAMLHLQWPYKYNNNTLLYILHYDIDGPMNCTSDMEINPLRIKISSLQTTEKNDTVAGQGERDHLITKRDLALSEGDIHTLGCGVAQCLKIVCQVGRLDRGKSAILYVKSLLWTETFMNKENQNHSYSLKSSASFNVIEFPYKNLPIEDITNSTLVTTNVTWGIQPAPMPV
Sequence of recombinant human integrin αVβ6 (P18564 22-707): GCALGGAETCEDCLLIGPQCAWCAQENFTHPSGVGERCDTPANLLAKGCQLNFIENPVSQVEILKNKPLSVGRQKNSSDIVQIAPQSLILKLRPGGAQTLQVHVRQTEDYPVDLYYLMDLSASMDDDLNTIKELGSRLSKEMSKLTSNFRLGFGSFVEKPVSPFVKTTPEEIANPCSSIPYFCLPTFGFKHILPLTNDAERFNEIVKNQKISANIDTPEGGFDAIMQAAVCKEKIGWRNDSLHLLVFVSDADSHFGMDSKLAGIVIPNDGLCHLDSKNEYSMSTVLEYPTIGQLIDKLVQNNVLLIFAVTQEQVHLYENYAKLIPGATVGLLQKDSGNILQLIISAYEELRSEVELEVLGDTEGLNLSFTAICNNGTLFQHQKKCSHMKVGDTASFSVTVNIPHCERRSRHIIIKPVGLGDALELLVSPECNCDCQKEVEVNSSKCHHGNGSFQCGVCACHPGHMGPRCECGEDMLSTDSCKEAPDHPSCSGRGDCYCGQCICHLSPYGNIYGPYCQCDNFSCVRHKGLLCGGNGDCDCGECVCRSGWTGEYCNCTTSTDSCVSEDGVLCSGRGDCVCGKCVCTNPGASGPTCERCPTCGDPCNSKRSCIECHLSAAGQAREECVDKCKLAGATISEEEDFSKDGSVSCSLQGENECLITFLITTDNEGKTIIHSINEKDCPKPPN

This assay addresses recombinant human integrin αVβ6 (Homo sapiens (Human), UniProt P06756+P18564). The assay is described as follows: Solid phase integrin αVβ6 binding assay. Particulars: recombinant TGFβ1 LAP as ligand, values given as ranges, read-out: αVβ6 Inhibition IC50 (nM) - range. As to the method: Example B1—Solid Phase Integrin αVβ6 Binding Assay
Microplates were coated with recombinant human integrin αVβ6 (2 μg/mL) in PBS (100 μL/well 25 OC, overnight). The coating solution was removed, washed with wash buffer (0.05% Tween 20; 0.5 mM MnCl2; in 1×TBS). Plate was blocked with 200 μL/well of Block Buffer (1% BSA; 5% sucrose; 0.5 mM MnCl2; in 1×TBS) at 37° C. for 2 h. Dilutions of testing compounds and recombinant TGFβ1 LAP (0.67 μg/mL) in binding buffer (0.05% BSA; 2.5% sucrose; 0.5 mM MnCl2; in 1×TBS) were added. The plate was incubated for 2 hours at 25° C., washed, and incubated for 1 hour with Biotin-Anti-hLAP. Bound antibody was detected by peroxidase-conjugated streptavidin. The IC50 values for testing compounds were calculated by a four-parameter logistic regression.
The compounds tested were compound samples prepared according to procedures described in the Synthetic Examples section, with the stereochemical purity as indicated in the Examples.
As for `CS(=O)(=O)N1CCC[C@@H](C(=O)N[C@@H](CCCCCCCc2ccc3c(n2)NCCC3)C(=O)O)C1` (mixture of isomers) [Compound 37, (S)-2-((R)-1-(methylsulfonyl)piperidine-3-carboxamido)-9-(5,6,7,8-tetrahydro-1,8-naphthyridin-2-yl)nonanoic acid and (S)-2-((S)-1-(methylsulfonyl)piperidine-3-carboxamido)-9-(5,6,7,8-tetrahydro-1,8-naphthyridin-2-yl)nonanoic Acid], the concentration for half-maximal inhibition (IC50) (as a rule, the midpoint of a concentration-inhibition curve) is less than 50 nM.

Take `O=C(O)[C@H](CCCCCCCc1ccc2c(n1)NCCC2)NC(=O)[C@H]1CCOc2ccccc21` (mixture of isomers) [Compound 46, (S)-2-((S)-chromane-4-carboxamido)-9-(5,6,7,8-tetrahydro-1,8-naphthyridin-2-yl)nonanoic Acid and (S)-2-((R)-chromane-4-carboxamido)-9-(5,6,7,8-tetrahydro-1,8-naphthyridin-2-yl)nonanoic Acid]: the half-inhibitory concentration (IC50) lay in the range of 50 to 250 nM.

Turning to `C[C@@]1(C(=O)N[C@@H](CCCCCCCc2ccc3c(n2)NCCC3)C(=O)O)CCCOC1` (mixture of isomers) [Compound 47, (S)-2-((R)-3-methyltetrahydro-2H-pyran-3-carboxamido)-9-(5,6,7,8-tetrahydro-1,8-naphthyridin-2-yl)nonanoic Acid and (S)-2-((S)-3-methyltetrahydro-2H-pyran-3-carboxamido)-9-(5,6,7,8-tetrahydro-1,8-naphthyridin-2-yl)nonanoic Acid], the IC50 was 50 to 250 nM.

Turning to `CC1(C(=O)N[C@@H](CCCCCCCc2ccc3c(n2)NCCC3)C(=O)O)CCOCC1` [Compound 8, (S)-2-(4-methyltetrahydro-2H-pyran-4-carboxamido)-9-(5,6,7,8-tetrahydro-1,8-naphthyridin-2-yl)nonanoic Acid], the IC50 was less than 50 nM.

With `CS(=O)(=O)CCCC(=O)N[C@@H](CCCCCCCc1ccc2c(n1)NCCC2)C(=O)O` [Compound 24, (S)-2-(4-(methylsulfonyl)butanamido)-9-(5,6,7,8-tetrahydro-1,8-naphthyridin-2-yl)nonanoic Acid], the IC50 lay in the range of 251 to 1000 nM.

With `COCCCC(=O)N[C@@H](CCCCCCCc1ccc2c(n1)NCCC2)C(=O)O` [Compound 30, (S)-2-(4-methoxybutanamido)-9-(5,6,7,8-tetrahydro-1,8-naphthyridin-2-yl)nonanoic Acid], the IC50 lay within 251 to 1000 nM.

Consider `CC(C)(C)OC(=O)N1CC(C)(OC(=O)N[C@@H](CCCCCCCc2ccc3c(n2)NCCC3)C(=O)O)C1` [Compound 32, (S)-2-((((1-(tert-butoxycarbonyl)-3-methylazetidin-3-yl)oxy)carbonyl)amino)-9-(5,6,7,8-tetrahydro-1,8-naphthyridin-2-yl)nonanoic Acid], for which the half-inhibitory concentration (IC50) is less than 50 nM.

With `O=C(N[C@@H](CCCCCCCc1ccc2c(n1)NCCC2)C(=O)O)C1CCNCC1` [Compound 34, (S)-2-(piperidine-4-carboxamido)-9-(5,6,7,8-tetrahydro-1,8-naphthyridin-2-yl)nonanoic Acid], the IC50 was in the range of 50 to 250 nM.

As to `CC(=O)N1CCC(C(=O)N[C@@H](CCCCCCCc2ccc3c(n2)NCCC3)C(=O)O)CC1` [Compound 36, (S)-2-(1-acetylpiperidine-4-carboxamido)-9-(5,6,7,8-tetrahydro-1,8-naphthyridin-2-yl)nonanoic Acid], the concentration for half-maximal inhibition (IC50) was 50 to 250 nM.

Turning to `NS(=O)(=O)CCC(=O)N[C@@H](CCCCCCCc1ccc2c(n1)NCCC2)C(=O)O` [Compound 38, (S)-2-(3-sulfamoylpropanamido)-9-(5,6,7,8-tetrahydro-1,8-naphthyridin-2-yl)nonanoic Acid], the IC50 lay in the range of 251 to 1000 nM.

Consider `CS(=O)(=O)N1CCC(C(=O)N[C@@H](CCCCCCCc2ccc3c(n2)NCCC3)C(=O)O)CC1` [Compound 39, (S)-2-(1-(methylsulfonyl)piperidine-4-carboxamido)-9-(5,6,7,8-tetrahydro-1,8-naphthyridin-2-yl)nonanoic Acid], for which the IC50 was less than 50 nM.

Take `O=C(O)[C@H](CCCCCCCc1ccc2c(n1)NCCC2)NC(=O)C1(C(F)(F)F)CCOCC1` [Compound 42, (S)-9-(5,6,7,8-tetrahydro-1,8-naphthyridin-2-yl)-2-(4-(trifluoromethyl)tetrahydro-2H-pyran-4-carboxamido)nonanoic Acid]: the IC50 is less than 50 nM.

As to `O=C(N[C@@H](CCCCCCCc1ccc2c(n1)NCCC2)C(=O)O)C1CC2CCC(C1)O2` (stereo partly drawn) [Compound 43, (S)-2-((1R,3s,5S)-8-oxabicyclo[3.2.1]octane-3-carboxamido)-9-(5,6,7,8-tetrahydro-1,8-naphthyridin-2-yl)nonanoic acid and (S)-2-((1R,3r,5S)-8-oxabicyclo[3.2.1]octane-3-carboxamido)-9-(5,6,7,8-tetrahydro-1,8-naphthyridin-2-yl)nonanoic Acid], the IC50 is less than 50 nM.

With `CC1(C(=O)N[C@@H](CCCCCCCc2ccc3c(n2)NCCC3)C(=O)O)CCCCC1` [Compound 44, (S)-2-(1-methylcyclohexanecarboxamido)-9-(5,6,7,8-tetrahydro-1,8-naphthyridin-2-yl)nonanoic Acid], the half-inhibitory concentration (IC50) is less than 50 nM.

For the compound `O=C(O)[C@H](CCCCCCCc1ccc2c(n1)NCCC2)NC(=O)C12CC(C1)C2` [Compound 45, (S)-2-(bicyclo[1.1.1]pentane-1-carboxamido)-9-(5,6,7,8-tetrahydro-1,8-naphthyridin-2-yl)nonanoic Acid], the IC50 is less than 50 nM.

(Values after US11396506B2, “Amino acid compounds with unbranched linkers and methods of use” (Pliant Therapeutics, Inc., priority 2018, dated 2022).)
